In ChEMBL document CHEMBL6134848, “Deuteration Strategy-Inspired Design of Novel Diarylpyrimidine Derivatives as Potent Non-Nucleoside Reverse Transcriptase Inhibitors Featuring Improved Efficacy, Selectivity, and Druggability” (J Med Chem, 2025):

Columns and labels:
[1] = tested on: Human immunodeficiency virus 1; assay: Antiviral activity against wild-type HIV-1 IIIB infected in human MT4 cells assessed as protection against virus-induced cytopathicity measured after 5 days post-infection by MTT assay; type: functional, organism-based; settings: Human immunodeficiency virus 1, IIIB, MT4, 120 h
[2] = Selectivity index, ratio of CC50 for cytotoxicity against human MT4 cells to EC50 for antiviral activity against wild-type HIV-1 IIIB infected in human MT4 cells; type: toxicity, cell-based; settings: read-out: Ratio CC50/EC50
[3] = tested on: Human immunodeficiency virus 1; assay: Antiviral activity against drug-resistant HIV-1 harboring RT Y188L mutant infected in human MT4 cells assessed as protection against virus-induced cytopathicity measured after 5 days post-infection by MTT assay; type: functional, organism-based; settings: Human immunodeficiency virus 1, MT4, 120 h
[4] = tested on: Human immunodeficiency virus 1; assay: Antiviral activity against drug-resistant HIV-1 harboring RT F227L/V106A mutant infected in human MT4 cells assessed as protection against virus-induced cytopathicity measured after 5 days post-infection by MTT assay; type: functional, organism-based; settings: Human immunodeficiency virus 1, MT4, 120 h
[5] = tested on: Human immunodeficiency virus 1; assay: Antiviral activity against drug-resistant HIV-1 harboring RT RES056 mutant infected in human MT4 cells assessed as protection against virus-induced cytopathicity measured after 5 days post-infection by MTT assay; type: functional, organism-based; settings: Human immunodeficiency virus 1, MT4, 120 h
[6] = biological target: T1, Voltage-gated inwardly rectifying potassium channel KCNH2 (Homo sapiens, UniProt Q12809); assay: Inhibition of hERG expressed in CHO cells by manual patch-clamp electrophysiology; type: toxicity, cell-based
[7] = biological target: T1, Voltage-gated inwardly rectifying potassium channel KCNH2; assay: Inhibition of hERG expressed in CHO cells assessed as fold increase by manual patch-clamp electrophysiology relative to RPV; type: toxicity, cell-based
[8] = biological target: T2, Cytochrome P450 2B6 (Homo sapiens, UniProt P20813); assay: Inhibition of CYP2B6 in human liver microsomes using bupropion as substrate incubated for 15 to 45 mins by; type: ADME, Microsome
T2 sequence (P20813 whole entry): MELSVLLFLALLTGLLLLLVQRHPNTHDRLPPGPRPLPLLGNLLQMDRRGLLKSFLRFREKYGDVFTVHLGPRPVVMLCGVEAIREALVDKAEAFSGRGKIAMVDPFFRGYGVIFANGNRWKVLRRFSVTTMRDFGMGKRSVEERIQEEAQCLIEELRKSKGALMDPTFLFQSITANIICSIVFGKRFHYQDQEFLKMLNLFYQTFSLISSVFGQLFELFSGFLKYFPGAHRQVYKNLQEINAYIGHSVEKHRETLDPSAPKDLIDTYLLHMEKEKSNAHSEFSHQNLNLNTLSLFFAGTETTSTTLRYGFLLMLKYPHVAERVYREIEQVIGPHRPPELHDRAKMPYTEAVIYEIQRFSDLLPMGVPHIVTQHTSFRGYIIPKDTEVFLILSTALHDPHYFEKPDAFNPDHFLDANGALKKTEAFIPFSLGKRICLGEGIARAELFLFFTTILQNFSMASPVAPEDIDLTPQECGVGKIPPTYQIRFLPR

[9] = biological target: T3, Cytochrome P450 2C8 (Homo sapiens, UniProt P10632); assay: Inhibition of CYP2C8 in human liver microsomes using amodiaquine as substrate incubated for 15 to 45 mins by; type: ADME, Microsome
T3 sequence (P10632 whole entry): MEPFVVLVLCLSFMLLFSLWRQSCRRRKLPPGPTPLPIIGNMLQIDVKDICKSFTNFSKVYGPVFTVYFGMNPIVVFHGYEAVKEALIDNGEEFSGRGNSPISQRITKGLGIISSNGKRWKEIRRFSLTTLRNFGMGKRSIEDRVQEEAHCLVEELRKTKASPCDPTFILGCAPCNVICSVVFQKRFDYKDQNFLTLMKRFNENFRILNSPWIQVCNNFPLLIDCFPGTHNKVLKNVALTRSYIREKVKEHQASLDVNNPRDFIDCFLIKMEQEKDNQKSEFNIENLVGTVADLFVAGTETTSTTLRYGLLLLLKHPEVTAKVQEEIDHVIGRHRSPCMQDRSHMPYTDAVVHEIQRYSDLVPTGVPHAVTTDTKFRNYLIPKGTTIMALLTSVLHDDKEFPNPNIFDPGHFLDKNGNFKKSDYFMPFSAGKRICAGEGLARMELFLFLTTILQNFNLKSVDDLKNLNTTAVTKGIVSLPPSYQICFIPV

[10] = biological target: Cytochrome P450 2D6 (Homo sapiens, UniProt P10635); assay: Inhibition of CYP2D6 in human liver microsomes using dextromethorphan as substrate incubated for 15 to 45 mins by; type: ADME, Microsome
[11] = biological target: T4, Cytochrome P450 3A4 (Homo sapiens, UniProt P08684); assay: Inhibition of CYP3A4 in human liver microsomes using midazolam as substrate incubated for 15 to 45 mins by; type: ADME, Microsome
[12] = biological target: T4, Cytochrome P450 3A4; assay: Inhibition of CYP3A4 in human liver microsomes using testosterone as substrate incubated for 15 to 45 mins by; type: ADME, Microsome
[13] = Drug metabolism in rat liver microsomes assessed as metabolic fraction at 1 uM measured up to 45 mins by LC/MS/MS analysis; type: ADME, Microsome; settings: 0.75 h
[14] = Protein binding in human plasma at 1 uM incubated for 6 hrs; type: ADME, cell-free; settings: read-out: PPB (converted)
[15] = Protein binding in human plasma assessed as drug recovery rate at 1 uM incubated for 6 hrs; type: ADME, cell-free; settings: read-out: Drug recovery
[16] = Clearance in Sprague-Dawley rat at 1 mg/kg, iv measured for 0.083 to 24 hrs by LC-MS/MS analysis; type: ADME, organism-based; settings: in vivo, time 0.083-24 hrs
[17] = Tmax in Sprague-Dawley rat at 10 mg/kg, po measured for 0.083 to 24 hrs by LC-MS/MS analysis; type: ADME, organism-based; settings: in vivo, time 0.083-24 hrs
[18] = AUC (0 to t) in Sprague-Dawley rat at 10 mg/kg, po measured for 0.083 to 24 hrs by LC-MS/MS analysis; type: ADME, organism-based; settings: in vivo, time 0.083-24 hrs
[19] = AUC (0 to infinity) in Sprague-Dawley rat at 10 mg/kg, po measured for 0.083 to 24 hrs by LC-MS/MS analysis; type: ADME, organism-based; settings: in vivo, time 0.083-24 hrs
[20] = MRT (0 to t) in Sprague-Dawley rat at 10 mg/kg, po measured for 0.083 to 24 hrs by LC-MS/MS analysis; type: ADME, organism-based; settings: in vivo, time 0.083-24 hrs
[21] = MRT (0 to infinity) in Sprague-Dawley rat at 10 mg/kg, po measured for 0.083 to 24 hrs by LC-MS/MS analysis; type: ADME, organism-based; settings: in vivo, time 0.083-24 hrs
[22] = Acute toxicity in ICR mouse assessed as body weight change at 2000 mg/kg, IG measured for 14 days; type: organism-based; settings: in vivo, po, 336 h, time 14 day
[23] = Acute toxicity in ICR mouse assessed as animal mortality at 2000 mg/kg, IG measured for 14 days; type: organism-based; settings: in vivo, po, 336 h, time 14 day
[24] = Acute toxicity in ICR mouse assessed as pathological change in heart at 2000 mg/kg, IG measured for 14 days by H and E staining based analysis; type: organism-based; settings: in vivo, po, 336 h, time 14 day
[25] = Acute toxicity in ICR mouse assessed as pathological change in liver at 2000 mg/kg, IG measured for 14 days by H and E staining based analysis; type: organism-based; settings: in vivo, po, 336 h, time 14 day
[26] = Acute toxicity in ICR mouse assessed as pathological change in spleen at 2000 mg/kg, IG measured for 14 days by H and E staining based analysis; type: organism-based; settings: in vivo, po, 336 h, time 14 day
[27] = Acute toxicity in ICR mouse assessed as pathological change in brain at 2000 mg/kg, IG measured for 14 days by H and E staining based analysis; type: organism-based; settings: in vivo, po, 336 h, time 14 day

T1 sequence (Q12809 whole entry): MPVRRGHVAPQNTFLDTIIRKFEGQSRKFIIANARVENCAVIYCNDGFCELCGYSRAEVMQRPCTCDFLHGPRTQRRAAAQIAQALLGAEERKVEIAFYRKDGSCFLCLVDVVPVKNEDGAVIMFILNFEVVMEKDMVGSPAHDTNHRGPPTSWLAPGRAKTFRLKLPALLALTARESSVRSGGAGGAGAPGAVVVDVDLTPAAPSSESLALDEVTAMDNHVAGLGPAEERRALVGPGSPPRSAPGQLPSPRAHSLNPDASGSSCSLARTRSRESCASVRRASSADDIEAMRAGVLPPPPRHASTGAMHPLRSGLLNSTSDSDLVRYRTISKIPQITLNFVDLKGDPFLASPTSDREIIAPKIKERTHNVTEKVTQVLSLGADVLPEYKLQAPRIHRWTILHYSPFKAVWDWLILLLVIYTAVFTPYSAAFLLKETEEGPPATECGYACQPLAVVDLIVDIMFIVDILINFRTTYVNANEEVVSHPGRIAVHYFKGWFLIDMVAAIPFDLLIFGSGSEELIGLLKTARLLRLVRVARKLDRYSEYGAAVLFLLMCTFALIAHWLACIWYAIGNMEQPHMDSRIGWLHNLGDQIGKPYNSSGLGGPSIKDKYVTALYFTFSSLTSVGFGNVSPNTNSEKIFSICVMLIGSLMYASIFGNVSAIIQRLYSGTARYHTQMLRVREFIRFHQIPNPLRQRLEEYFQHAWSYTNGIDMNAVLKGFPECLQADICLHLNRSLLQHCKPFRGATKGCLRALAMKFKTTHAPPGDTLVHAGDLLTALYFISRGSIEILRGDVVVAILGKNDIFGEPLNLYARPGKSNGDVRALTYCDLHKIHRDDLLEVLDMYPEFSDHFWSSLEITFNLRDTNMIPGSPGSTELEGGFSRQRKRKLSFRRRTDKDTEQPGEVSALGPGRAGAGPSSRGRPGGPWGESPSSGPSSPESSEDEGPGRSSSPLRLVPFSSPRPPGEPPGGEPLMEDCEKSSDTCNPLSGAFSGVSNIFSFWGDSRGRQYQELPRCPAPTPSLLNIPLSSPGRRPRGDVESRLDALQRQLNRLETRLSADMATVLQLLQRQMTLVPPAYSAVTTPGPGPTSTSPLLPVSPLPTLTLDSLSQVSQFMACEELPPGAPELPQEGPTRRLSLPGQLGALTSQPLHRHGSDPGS
T4 sequence (P08684 whole entry): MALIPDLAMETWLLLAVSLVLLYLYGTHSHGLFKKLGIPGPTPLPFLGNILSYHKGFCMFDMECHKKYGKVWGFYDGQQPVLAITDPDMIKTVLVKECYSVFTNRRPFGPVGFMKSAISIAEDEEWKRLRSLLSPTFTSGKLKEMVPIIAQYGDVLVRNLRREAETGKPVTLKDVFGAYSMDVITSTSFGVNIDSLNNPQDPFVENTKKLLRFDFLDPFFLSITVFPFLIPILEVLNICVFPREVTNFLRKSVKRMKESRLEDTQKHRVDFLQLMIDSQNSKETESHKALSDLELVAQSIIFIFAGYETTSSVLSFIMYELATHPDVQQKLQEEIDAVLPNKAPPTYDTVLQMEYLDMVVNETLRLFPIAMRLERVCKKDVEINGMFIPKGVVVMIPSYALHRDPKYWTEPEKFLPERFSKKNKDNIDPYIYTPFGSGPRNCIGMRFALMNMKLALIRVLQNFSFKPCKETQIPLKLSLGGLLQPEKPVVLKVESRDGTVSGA
Chain of Cytochrome P450 2D6 (P10635 whole entry): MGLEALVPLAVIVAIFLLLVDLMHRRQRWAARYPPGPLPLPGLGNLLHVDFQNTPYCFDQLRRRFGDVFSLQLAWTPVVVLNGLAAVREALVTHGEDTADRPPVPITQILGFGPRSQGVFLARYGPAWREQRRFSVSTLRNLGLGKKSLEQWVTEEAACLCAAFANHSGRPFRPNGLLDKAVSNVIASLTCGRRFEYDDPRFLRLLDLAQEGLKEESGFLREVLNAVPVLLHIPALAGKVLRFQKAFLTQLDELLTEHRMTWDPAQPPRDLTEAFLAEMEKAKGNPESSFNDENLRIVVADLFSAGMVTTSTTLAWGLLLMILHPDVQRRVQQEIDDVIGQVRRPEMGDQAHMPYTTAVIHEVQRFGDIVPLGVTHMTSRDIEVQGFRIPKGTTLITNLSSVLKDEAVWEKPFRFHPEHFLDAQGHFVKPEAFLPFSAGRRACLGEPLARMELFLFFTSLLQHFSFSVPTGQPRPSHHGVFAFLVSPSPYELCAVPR

[2H]C([2H])([2H])c1cc(C#N)cc(C([2H])([2H])[2H])c1Oc1nc(NC2CCN(Cc3ccc(S(N)(=O)=O)cc3)CC2)nc2ccsc12
EC50 [1]: 0.99 nM | selectivity ratio [2]: > 227000 | EC50 [3]: 5.18 nM | EC50 [4]: 4.46 nM | EC50 [5]: 75.1 nM | IC50 [6]: 932 nM | fold change (FC) [7]: 1.9 | IC50 [8]: > 10000 nM | IC50 [9]: > 10000 nM | IC50 [10]: > 10000 nM | IC50 [11]: > 10000 nM | IC50 [12]: > 10000 nM | Fm [13]: 28.9% | fraction unbound at 6 h, 1 µM [14]: 0.005 | recovery at 6 h, 1 µM [15]: 79.4% | clearance [16]: 22.9 mL/min/kg | Tmax [17]: 0.5 h | AUC(0-t) [18]: 1720 ng·h/mL | AUC(0-inf) [19]: 1800 ng·h/mL | MRT last [20]: 2.38 h | MRT inf [21]: 2.69 h | Activity [22]: Non-toxic | Activity [23]: Non-toxic | Activity [24]: Non-toxic | Activity [25]: Non-toxic | Activity [26]: Non-toxic | Activity [27]: Non-toxic
